ChEMBL document CHEMBL4680280, “Modulation of the Innate Immune Response by Targeting Toll-like Receptors: A Perspective on Their Agonists and Antagonists” (J Med Chem, 2020)

Experiments:
Toll-like receptor 2 [1] = target: T1, Toll-like receptor 2 (Homo sapiens, UniProt O60603); assay: Agonist activity at TLR2 in HEK-Blue hTLR2 cells assessed as NF-kappaB activation preincubated for 24 hrs followed by replacement of medium containing compound and measured after 0.5 to 1 hrs by Quanti-blue SEAP assay
Toll-like receptor 4 = Toll-like receptor 4 (Homo sapiens, UniProt O00206); assay: Modulation of TLR4 in human THP1 cells assessed as reduction in LPS-induced TLR4 expression pretreated for 2 hrs followed by LPS challenge and measured after 18 hrs by flow cytometry; assay type: cell-based, THP-1
Toll-like receptor 2 [2] = target: T1, Toll-like receptor 2; assay: Agonist activity at TLR2 (unknown origin)
Toll-like receptor 5 = Toll-like receptor 5 (Homo sapiens, UniProt O60602); assay: Inhibition of Flagellin-BS binding to human TLR5 expressed in HEK293 cells harboring SEAP reporter gene preincubated for 24 hrs followed by compound wash out and subsequent Flagellin-BS addition along with compound and measured after 0.5 hrs by QUANTI-Blue assay; assay type: cell-based
Toll-like receptor 5, sequence (O60602 whole entry): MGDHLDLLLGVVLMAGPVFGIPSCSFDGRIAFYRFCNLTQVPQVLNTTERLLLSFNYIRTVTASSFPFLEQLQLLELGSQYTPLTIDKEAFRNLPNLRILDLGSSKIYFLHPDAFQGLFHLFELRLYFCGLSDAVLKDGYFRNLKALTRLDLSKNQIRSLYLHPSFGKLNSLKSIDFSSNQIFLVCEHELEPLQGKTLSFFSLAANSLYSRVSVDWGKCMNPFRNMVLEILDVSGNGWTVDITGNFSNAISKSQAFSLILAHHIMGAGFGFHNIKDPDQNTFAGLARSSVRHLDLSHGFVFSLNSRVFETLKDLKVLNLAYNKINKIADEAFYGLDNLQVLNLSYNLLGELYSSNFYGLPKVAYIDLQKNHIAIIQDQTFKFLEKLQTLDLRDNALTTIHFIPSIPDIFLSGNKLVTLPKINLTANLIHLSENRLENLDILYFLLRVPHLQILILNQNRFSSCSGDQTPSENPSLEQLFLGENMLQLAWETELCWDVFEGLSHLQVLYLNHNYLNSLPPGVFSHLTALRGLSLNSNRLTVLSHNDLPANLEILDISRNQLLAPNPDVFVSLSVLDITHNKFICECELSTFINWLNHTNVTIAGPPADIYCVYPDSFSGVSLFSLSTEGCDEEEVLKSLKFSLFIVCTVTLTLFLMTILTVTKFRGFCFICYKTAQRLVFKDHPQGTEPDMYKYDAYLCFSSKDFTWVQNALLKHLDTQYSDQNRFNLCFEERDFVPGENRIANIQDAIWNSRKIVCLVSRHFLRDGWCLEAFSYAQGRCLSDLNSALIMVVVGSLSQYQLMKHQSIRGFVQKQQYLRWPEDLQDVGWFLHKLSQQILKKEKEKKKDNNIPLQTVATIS

T1 sequence (O60603 whole entry): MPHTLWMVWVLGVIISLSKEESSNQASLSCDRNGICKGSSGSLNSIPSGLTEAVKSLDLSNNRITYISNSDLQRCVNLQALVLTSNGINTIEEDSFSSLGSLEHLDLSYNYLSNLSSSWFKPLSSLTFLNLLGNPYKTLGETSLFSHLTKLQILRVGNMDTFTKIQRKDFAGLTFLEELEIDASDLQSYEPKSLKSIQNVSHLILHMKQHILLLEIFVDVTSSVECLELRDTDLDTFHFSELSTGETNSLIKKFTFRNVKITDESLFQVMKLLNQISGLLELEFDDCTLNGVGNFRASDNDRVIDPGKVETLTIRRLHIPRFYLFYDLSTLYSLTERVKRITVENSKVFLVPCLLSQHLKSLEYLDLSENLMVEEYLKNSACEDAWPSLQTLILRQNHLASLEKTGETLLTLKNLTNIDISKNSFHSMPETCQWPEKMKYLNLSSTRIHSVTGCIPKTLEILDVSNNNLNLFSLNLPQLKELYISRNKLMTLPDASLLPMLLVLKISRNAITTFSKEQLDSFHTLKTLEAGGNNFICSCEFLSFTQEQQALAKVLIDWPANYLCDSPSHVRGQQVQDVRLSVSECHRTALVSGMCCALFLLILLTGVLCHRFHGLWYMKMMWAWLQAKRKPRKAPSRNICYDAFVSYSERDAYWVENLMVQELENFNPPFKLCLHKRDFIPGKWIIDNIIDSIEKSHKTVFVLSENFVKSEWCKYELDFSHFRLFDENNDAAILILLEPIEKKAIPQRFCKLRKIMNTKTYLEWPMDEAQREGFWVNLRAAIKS
Toll-like receptor 4, sequence (O00206 whole entry): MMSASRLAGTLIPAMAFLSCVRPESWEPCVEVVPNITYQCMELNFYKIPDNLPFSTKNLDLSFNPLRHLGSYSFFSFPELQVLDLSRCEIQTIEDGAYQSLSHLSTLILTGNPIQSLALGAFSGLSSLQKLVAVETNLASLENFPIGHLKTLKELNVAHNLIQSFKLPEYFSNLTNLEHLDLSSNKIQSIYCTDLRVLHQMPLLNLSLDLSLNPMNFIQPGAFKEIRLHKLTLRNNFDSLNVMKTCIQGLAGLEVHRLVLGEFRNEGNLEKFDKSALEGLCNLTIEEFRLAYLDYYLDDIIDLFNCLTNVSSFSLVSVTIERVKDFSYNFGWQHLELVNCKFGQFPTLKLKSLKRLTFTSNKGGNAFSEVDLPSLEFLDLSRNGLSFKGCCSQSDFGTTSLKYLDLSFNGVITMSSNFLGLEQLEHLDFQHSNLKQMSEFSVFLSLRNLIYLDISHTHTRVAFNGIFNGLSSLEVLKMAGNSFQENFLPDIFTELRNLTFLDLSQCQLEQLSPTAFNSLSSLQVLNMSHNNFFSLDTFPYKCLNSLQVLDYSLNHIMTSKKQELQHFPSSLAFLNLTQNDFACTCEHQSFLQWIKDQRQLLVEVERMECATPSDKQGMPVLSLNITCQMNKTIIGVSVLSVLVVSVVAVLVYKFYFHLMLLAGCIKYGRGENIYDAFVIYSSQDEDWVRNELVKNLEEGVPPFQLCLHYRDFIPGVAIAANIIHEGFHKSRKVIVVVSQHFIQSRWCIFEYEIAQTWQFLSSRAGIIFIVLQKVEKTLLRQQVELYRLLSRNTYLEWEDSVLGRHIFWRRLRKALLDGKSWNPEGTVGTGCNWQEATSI

EC50 (Toll-like receptor 2 [2]) [nM] | SMILES | further results
 | CCOC(=O)c1c(NC(=O)N2CCN(C)CC2)sc2c1CCC2 | EC50 (Toll-like receptor 2 [1]): 550 nM
 | C=C1C(=O)O[C@@H]2[C@H]3O[C@]3(C)CC/C=C(\C)CC[C@@H]12 | IC50 (Toll-like receptor 4): 1400 nM
0.28 | CCCCCCCCCCCCCCCC(=O)OC[C@H](CSC[C@H](NC(C)=O)C(=O)N[C@@H](CO)C(=O)N[C@@H](CCCCN)C(=O)N[C@@H](CCCCN)C(=O)N[C@@H](CCCCN)C(=O)N[C@@H](CCCCN)C(=O)N[C@@H](CO)C(=O)N[C@@H](CC(C)C)C(=O)N[C@H](CN[C@@H](CCSC)C(=O)N[C@@H](Cc1c[nH]c2ccccc12)C(=O)N[C@H](C(=O)N[C@H](C(=O)N[C@@H](CCC(N)=O)C(=O)N[C@H](C(=O)O)C(C)C)[C@@H](C)O)[C@@H](C)CC)CC(C)C)OC(=O)CCCCCCCCCCCCCCC | 
 | CNc1ccc([N+](=O)[O-])cc1-n1cnc(-c2ccc(C(F)(F)F)cc2O)c1 | EC50 (Toll-like receptor 2 [1]): 4.88 nM
0.3 | CCCCCCCCCCCCCCCC(=O)OCCCC[C@H](CSC[C@H](N)C(=O)N[C@@H](CO)C(=O)N[C@@H](CCCCN)C(=O)N[C@@H](CCCCN)C(=O)N[C@@H](CCCCN)C(=O)N[C@@H](CCCCN)C(=O)N[C@@H](CO)C(=O)N[C@@H](CC(C)C)C(=O)N[C@H](CN[C@@H](CCSC)C(=O)N[C@@H](Cc1c[nH]c2ccccc12)C(=O)N[C@H](C(=O)N[C@H](C(=O)N[C@@H](CCC(N)=O)C(=O)N[C@H](C(=O)O)C(C)C)[C@@H](C)O)[C@@H](C)CC)CC(C)C)OC(=O)CCCCCCCCCCCCCCC | 
0.47 | CCCCCCCCCCCCCCCC(=O)OC[C@H](CSC[C@H](N)C(=O)N[C@@H](CO)C(=O)N[C@@H](CCCCN)C(=O)N[C@@H](CCCCN)C(=O)N[C@@H](CCCCN)C(=O)N[C@@H](CCCCN)C(=O)N[C@@H](CO)C(=O)N[C@@H](CC(C)C)C(=O)N[C@H](CN[C@@H](CCSC)C(=O)N[C@@H](Cc1c[nH]c2ccccc12)C(=O)N[C@H](C(=O)N[C@H](C(=O)N[C@@H](CCC(N)=O)C(=O)N[C@H](C(=O)O)C(C)C)[C@@H](C)O)[C@@H](C)CC)CC(C)C)OC(=O)CCCCCCCCCCCCCCC | 
0.38 | CCCCCCCCCCCCCCCC(=O)OCCC[C@H](CSC[C@H](N)C(=O)N[C@@H](CO)C(=O)N[C@@H](CCCCN)C(=O)N[C@@H](CCCCN)C(=O)N[C@@H](CCCCN)C(=O)N[C@@H](CCCCN)C(=O)N[C@@H](CO)C(=O)N[C@@H](CC(C)C)C(=O)N[C@H](CN[C@@H](CCSC)C(=O)N[C@@H](Cc1c[nH]c2ccccc12)C(=O)N[C@H](C(=O)N[C@H](C(=O)N[C@@H](CCC(N)=O)C(=O)N[C@H](C(=O)O)C(C)C)[C@@H](C)O)[C@@H](C)CC)CC(C)C)OC(=O)CCCCCCCCCCCCCCC | 
 | c1ccc(Cn2c(Sc3ncnc4c3sc3ncccc34)nnc2-c2ccncc2)cc1 | IC50 (Toll-like receptor 5): 850 nM
